Results: patent US11066414B2, “Cot modulators and methods of use thereof” (Gilead Sciences, Inc., priority 2015, dated 2021)
Like-named read-outs stand apart in the source and are kept apart here.

Key:
Human Cot = Human Cot (Homo sapiens (Human), UniProt P41279); experiment: High Throughput Cot Biochemical Assay; conditions: Cot HTRF (TR-FRET KinEASE) biochemical assay, 400 μM ATP
TNFα = experiment: Cot Monocyte TNFα Cell Based Assay
[1] = Homo sapiens, Monocyte, read-out: EC50 TNF, LPS-stimulated human monocytes, TNFα TR-FRET

Sequence of Human Cot (P41279 30-397): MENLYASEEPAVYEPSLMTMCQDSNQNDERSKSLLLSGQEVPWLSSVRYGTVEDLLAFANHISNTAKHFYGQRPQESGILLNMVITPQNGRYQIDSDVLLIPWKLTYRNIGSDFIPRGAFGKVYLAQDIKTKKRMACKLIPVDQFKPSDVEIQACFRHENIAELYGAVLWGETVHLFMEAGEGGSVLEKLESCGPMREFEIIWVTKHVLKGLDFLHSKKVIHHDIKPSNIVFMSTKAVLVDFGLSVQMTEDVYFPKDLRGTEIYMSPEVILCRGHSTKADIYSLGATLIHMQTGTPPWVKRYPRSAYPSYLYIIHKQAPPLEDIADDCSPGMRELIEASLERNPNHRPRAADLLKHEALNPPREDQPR

IC50 (Human Cot; read-out: IC50 HTRF)	EC50 (TNFα; read-out: EC50 TNF, LPS-stimulated human monocytes, TNFα TR-FRET)	IC50 (Human Cot; IC50 HTRF)	EC50 (TNFα; [1])	Structure (SMILES)
		1 nM	19 nM	Cn1ccc2c([C@H](Nc3cc(C#N)c4ncc(C#N)c(NCC(C)(C)C(F)(F)F)c4c3)c3cn(C4(C)CC4)nn3)cccc2c1=O [Example 884, (S)-6-(((2-methyl-1-oxo-1,2-dihydroisoquinolin-5-yl)(1-(1-methylcyclopropyl)-1H-1,2,3-triazol-4-yl)methyl)amino)-4-((3,3,3-trifluoro-2,2-dimethylpropyl)amino)q uin oline-3,8-dicarbonitrile]
		10 nM	132 nM	COc1ncccc1[C@H](Nc1cc(C#N)c2ncc(C#N)c(NCC(C)(C)C)c2c1)c1cn(C2(C(F)(F)F)CC2)nn1 [Example 885, (S)-6-(((2-methoxypyridin-3-yl)(1-(1-(trifluoromethyl)cyclopropyl)-1H-1,2,3-triazol-4-yl)methyl)amino)-4-(neopentylamino)quinoline-3,8-dicarbonitrile]
		3 nM	30 nM	Cn1ccc2c([C@H](Nc3cc(C#N)c4ncc(C#N)c(NCC(C)(C)C(F)(F)F)c4c3)c3cn(C4(C(F)(F)F)CC4)nn3)cccc2c1=O [Example 886, (S)-6-(((2-methyl-1-oxo-1,2-dihydroisoquinolin-5-yl)(1-(1-(trifluoromethyl)-cyclopropyl)-1H-1,2,3-triazol-4-yl)methyl)-amino)-4-((3,3,3-trifluoro-2,2-dimethylpropyl)-amino)quinoline-3,8-dicarbonitrile]

Second part, the compound before the results:

Structure (SMILES)	IC50 (Human Cot; read-out: IC50 HTRF)	EC50 (TNFα; read-out: EC50 TNF, LPS-stimulated human monocytes, TNFα TR-FRET)	IC50 (Human Cot; IC50 HTRF)	EC50 (TNFα; [1])
Cn1ccc2c([C@H](Nc3cc(C#N)c4ncc(C#N)c(NCC(C)(C)C)c4c3)c3cn(C4(C5CC5)CC4)nn3)cccc2c1=O [Example 881, (S)-6-(((4-(1-(1-bi(cyclopropan)]-1-yl)-1H-1,2,3-triazol-4-yl)(2-methyl-1-oxo-1,2-dihydroisoquinolin-5-yl)methyl)amino)-4-(neopentylamino)quinoline-3,8-dicarbonitrile]	2 nM	13 nM		
Cn1ccc2c([C@H](Nc3cc(C#N)c4ncc(C#N)c(NCC(C)(C)C(F)(F)F)c4c3)c3cn(C4(C5CC5)CC4)nn3)cccc2c1=O [Example 882, (S)-6-(((1-([1,1′-bi(cyclopropan)]-1-yl)-1H-1,2,3-triazol-4-yl)(2-methyl-1-oxo-1,2-dihydroisoquinolin-5-yl)methyl)amino)-4-((3,3,3-trifluoro-2,2-dimethylpropyl)amino)quinoline-3,8-dicarbonitrile]			2 nM	18 nM
Cn1ccc2c([C@H](Nc3cc(C#N)c4ncc(C#N)c(NCC(C)(C)C(F)(F)F)c4c3)c3cn(C45CC(C4)C5)nn3)cccc2c1=O [Example 883, (S)-6-(((1-(bicyclo[1.1.1]pentan-1-yl)-1H-1,2,3-triazol-4-yl)(2-methyl-1-oxo-1,2-dihydroisoquinolin-5-yl)methyl)amino)-4-((3,3,3-trifluoro-2,2-dimethylpropyl)amino)quinoline-3,8-dicarbonitrile]			1 nM	13 nM
Cn1c(=O)ccc2c([C@H](Nc3cc(C#N)c4ncc(C#N)c(NCC(C)(C)C)c4c3)c3cn(C45CC(C4)C5)nn3)cccc21 [Example 887, (S)-6-(((1-(bicyclo[1.1.1]pentan-1-yl)-1H-1,2,3-triazol-4-yl)(1-methyl-2-oxo-1,2-dihydroquinolin-5-yl)methyl)amino)-4-(neopentylamino)quinoline-3,8-dicarbonitrile]			3 nM	33 nM
CC(C)(C)CNc1c(C#N)cnc2c(C#N)cc(N[C@H](c3cn(C45CC(C4)C5)nn3)c3cccc4c(=O)[nH]ccc34)cc12 [Example 888, (S)-6-(((1-(bicyclo[1.1.1]pentan-1-yl)-1H-1,2,3-triazol-4-yl)(1-oxo-1,2-dihydroisoquinolin-5-yl)methyl)amino)-4-(neopentylamino)quinoline-3,8-dicarbonitrile]			2 nM	165 nM
